Experimental data published in PubChem BioAssay (NCI).
Values joined by “and” are separate entries in the source; they are usually repeats but may differ in a detail not shown here. Equal entries are not always repeated.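 Tested at 5 concentrations; 48 h exposure; 96-well plates; endpoints linearly interpolated, else capped at highest concentration. GI50: concentration for 50% inhibition of growth. At the TGI there is no net growth.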 *1 amine or outer side, *2 acyl side, *3 side chain or, on linkers, in order; H or OH if unused. Where a SMILES comes first, the peptide text is derived from it. [ ]: non-standard residue; d: D form. The star is where a group is joined. X11 = C/C=C/CC(C)C(O)[C@H](N[*:1])C(=O)[*:2]; Decanoyl = CCCCCCCCCC(=O)*; Leu(ol) = CC(C)C[C@H](N)CO; Iva = CC[C@](C)(N)C(=O)O; Aib = CC(C)(N)C(=O)O

Test system: MDA-MB-468 breast
Assay: NCI-60 cell line screen, 48 h

Structure (SMILES)	GI50	TGI
COc1ccc(-c2cn[nH]c2-c2cc(OC)c(OC)c(OC)c2)cc1	0.0422 µM	30.3 µM
C/C=C/CC(C)C(O)[C@H](NC(=O)[C@@H]1CCCN1C(=O)C(C)(C)NC(=O)CCCCCCCCC)C(=O)N[C@@](C)(CC)C(=O)N[C@@H](CCC(N)=O)C(=O)N[C@H](CCC(N)=O)C(=O)NC(C)(C)C(=O)NC(C)(C)C(=O)N[C@@H](CCC(N)=O)C(=O)N[C@H](CC(C)C)C(=O)N[C@H](CO)CC(C)C (stereo partly drawn) (Decanoyl-[Aib]P[X11][Iva]Q[dQ][Aib][Aib]Q[dL][Leu(ol)])	1.79 µM	3.42 µM
CN1CCN(Cc2ccc(NC(=O)c3cncc(C#Cc4cnc5ccc(N6CCSCC6)nn45)c3)cc2C(F)(F)F)CC1	0.146 µM	0.302 µM
O=C(Nc1ccc(Oc2ccc(Nc3nc4ccccc4s3)cc2)cc1)Nc1ccc(Cl)c(C(F)(F)F)c1	0.405 µM	2.2 µM
O=C(CCCSc1nc(-c2ccccc2)cc(-c2ccccc2)n1)NO	1.49 µM	4.69 µM
CC(C)[C@@H]1C=C2CC[C@H]3[C@](C)(CN)CCC[C@]3(C)[C@H]2CC1	13.2 µM	28.2 µM
CCCOc1cc2ccccc2cc1C(=O)Nc1nc(N)c2c(ccc3nccc32)[nH]1	0.0542 µM	0.516 µM
Cc1csc(-c2nnc(Nc3ccc(Oc4ncccc4-c4ccnc(N)n4)cc3)c3ccccc23)c1	< 0.0115 µM	> 100 µM
COc1ccc(CN2C(=O)/C(=C\c3cc(OC)c(OC)c(OC)c3)c3ccccc32)cc1	1.94 µM	5.61 µM
COc1ccc([C@H]2[C@H](O)C(=O)N2c2cc(OC)c(OC)c(OC)c2)cc1O	< 0.01 µM	> 100 µM
CC1(COc2ccc3c(c2)ncn3-c2ccc3cccc(N4CCC(N)CC4)c3n2)COC1	1.34 µM and 2 µM	2.94 µM and 4.95 µM
Cc1nnc(NC(=O)c2nc(S(=O)(=O)Cc3ccc(F)cc3)ncc2Cl)s1	1.2 µM	3.28 µM
CCn1c(-c2nonc2N)nc2c(C#CC(C)(C)O)nc(OC[C@@H](N)c3ccccc3)cc21	4.06 µM	7.68 µM
Cc1cc(C)cc(NC2=C(Cl)C(=O)c3nc(C)ccc3C2=O)c1	1.64 µM	3.2 µM
Nc1ccc(C2=NNC(=O)Cc3cc4c(cc32)OCCO4)cc1Cl	1.58 µM	15.9 µM
CN(C)c1cc(NN=C(c2ccc(O)cc2)c2ccc(O)cc2)c([N+](=O)[O-])cc1[N+](=O)[O-]	10.1 µM	22.6 µM
Nc1n[nH]c2cccc(C#Cc3cccc(C(=O)Nc4ccc(CN5CCOCC5)c(C(F)(F)F)c4)c3)c12	2.87 µM	9.72 µM
Nc1n[nH]c2cc(F)c([C@@H]3Nc4ccc5[nH]ncc5c4[C@H]4C5CCC(C5)[C@@H]34)cc12 (stereo partly drawn)	0.15 µM	1.9 µM
COc1ccc(/C=N/NC(=O)c2cccc3cc[nH]c23)cc1O	3.35 µM	> 25.2 µM
O=C1NC(=NC(CO)Cc2ccccc2)S/C1=C\c1ccc2ncccc2c1 (stereo not drawn)	7.07 µM and 2.14 µM	> 25 µM and 13.7 µM
COc1ccc2nc3cc(Cl)ccc3c(NCCNCC(C)O)c2c1 (stereo not drawn)	1.55 µM	3.36 µM
Nc1c(C(=O)Nc2cccc(C(F)(F)F)c2)sc2nc3c(cc12)CCCCC3	0.394 µM	3.01 µM
COc1cc(/C(C#N)=C/c2nc3c(N4CCOCC4)nc(Cl)nc3n2C)cc(OC)c1OC	< 0.0131 µM	–
CCCCCCCCCCCCCCCC[N+](C)(C)Cc1ccccc1	0.328 µM	1.2 µM
c1ccc(Sc2ncnc3ccccc23)cc1	2.98 µM	12.3 µM
COCCOc1ccc(-c2nc3ccc(-c4nc5ccc(N6CCN(C)CC6)cc5[nH]4)cc3[nH]2)cc1	1.42 µM	4.16 µM
COc1cccc(-c2nc(-c3ccc(NC(=O)OC(C)C)cc3)[nH]c2-c2ccnc(Br)c2)c1	2.03 µM	6.5 µM
Clc1cccc(/C=N/Nc2nc(N/N=C/c3cccc(Cl)c3)nc(N3CCOCC3)n2)c1	1.65 µM	4.28 µM
CCCCCCCCCCn1cc[n+](C)c1	0.481 µM	–
COc1ccc(CCN=C2NC(=O)/C(=C/c3ccc4ncccc4c3)S2)cc1	> 18.7 µM	> 25 µM
